Results as given in paper PMC9393390 (Frontiers in Pharmacology, 2022).
Like-named read-outs stand apart in the source and are kept apart here.

Key:
SARS-CoV-2-RBD (S-RBD) = biological target: T1, SARS-CoV-2-RBD (S-RBD) (Severe acute respiratory syndrome coronavirus 2, UniProt P0DTC2); assay: Surface plasmon resonance (SPR) binding to immobilized S-RBD
T1 construct: purchased Sino Biological

hACE2 = biological target: T2, hACE2 (Homo sapiens, UniProt Q9BYF1); assay: Surface plasmon resonance (SPR) binding to immobilized hACE2
T2 construct: purchased Sino Biological
T2 sequence (Q9BYF1 18-805): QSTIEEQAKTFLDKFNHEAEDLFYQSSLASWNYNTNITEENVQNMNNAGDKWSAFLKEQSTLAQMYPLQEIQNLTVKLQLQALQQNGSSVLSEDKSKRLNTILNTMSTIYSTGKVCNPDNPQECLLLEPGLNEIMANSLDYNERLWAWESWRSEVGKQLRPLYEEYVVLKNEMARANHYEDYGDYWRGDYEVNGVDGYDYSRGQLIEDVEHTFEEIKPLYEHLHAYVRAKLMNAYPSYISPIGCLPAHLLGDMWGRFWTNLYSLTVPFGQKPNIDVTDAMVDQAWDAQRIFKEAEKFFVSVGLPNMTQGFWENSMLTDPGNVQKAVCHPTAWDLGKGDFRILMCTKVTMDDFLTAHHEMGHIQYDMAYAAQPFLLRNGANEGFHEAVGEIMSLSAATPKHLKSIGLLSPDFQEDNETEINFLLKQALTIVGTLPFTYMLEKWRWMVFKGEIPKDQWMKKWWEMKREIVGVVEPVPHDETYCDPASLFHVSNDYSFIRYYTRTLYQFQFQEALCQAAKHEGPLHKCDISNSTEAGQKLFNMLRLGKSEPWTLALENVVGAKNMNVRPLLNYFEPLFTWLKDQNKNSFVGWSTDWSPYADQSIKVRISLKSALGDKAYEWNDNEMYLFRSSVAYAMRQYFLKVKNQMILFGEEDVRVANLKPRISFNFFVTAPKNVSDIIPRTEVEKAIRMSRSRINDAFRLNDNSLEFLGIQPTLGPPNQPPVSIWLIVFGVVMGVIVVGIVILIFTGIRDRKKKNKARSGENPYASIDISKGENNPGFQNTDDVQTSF
Description: The recombinant S-RBD (Sino Biological, Beijing, China) and hACE2 protein (Sino Biological, Beijing, China) were used for surface plasmon resonance (SPR) analysis using a Biacore 8K instrument (Biacore, Uppsala, Sweden) as previously described ([Chu et al., 2018a]; [Chu et al., 2018b]). Each target was immobilized onto flow cells in a CM5 sensor chip (GE Healthcare) via the amine-coupling method. Briefly, S-RBD was diluted in 10 mM pH 5.5 acetate to 20 µg/ml, while hACE2 was diluted in 10 mM pH 4.5 acetate to 20 µg/ml. Then the protein solutions were injected individually on the carboxyl modified sensor surface to form amine bonds. Both S-RBD and hACE2 immobilized levels were about 10,000 RU. Binding analyses were carried out at 25 °C and a flow rate of 30 μl min^−1. The retrieved drugs in a running buffer (1×PBS, 0.05% Tween 20 and 5% dimethyl sulfoxide, pH 7.4) were run over each target at gradient concentrations as indicated. An empty flow cell, without any immobilized protein, was used as a deducted reference. The binding curves were analyzed using a kinetic binding model supplied with Biacore Evaluation Software (GE Healthcare).
To evaluate the retrieved inhibitors against the S-RBD-hACE2, surface plasmon resonance (SPR) was used to determine the binding affinities of the 20 retrieved drugs to S-RBD and hACE2.
SPR analysis was performed to assess the retrieved drugs binding to hACE2 at gradient concentrations. The binding curves were analyzed using a kinetic analysis supplied with Biacore Evaluation Software. Data are presented as RU over time (s). The K D were calculated using a 1:1 binding model.

S-RBD binding to hACE2 [1] = biological target: S-RBD binding to hACE2 (Severe acute respiratory syndrome coronavirus 2, UniProt P0DTC2); assay: Competitive inhibition ELISA (SARS-CoV-2 inhibitor screening kit); format: biochemical; settings: 1 μM
S-RBD binding to hACE2 [2] = biological target: T3, S-RBD binding to hACE2 (Homo sapiens, UniProt Q9BYF1); assay: SPR competition binding experiment (S-RBD on immobilized hACE2); settings: competitive SPR, 40 nM S-RBD, 25 μM to 0.012 μM
T3 construct: purchased Sino Biological
T3 sequence (Q9BYF1 18-740): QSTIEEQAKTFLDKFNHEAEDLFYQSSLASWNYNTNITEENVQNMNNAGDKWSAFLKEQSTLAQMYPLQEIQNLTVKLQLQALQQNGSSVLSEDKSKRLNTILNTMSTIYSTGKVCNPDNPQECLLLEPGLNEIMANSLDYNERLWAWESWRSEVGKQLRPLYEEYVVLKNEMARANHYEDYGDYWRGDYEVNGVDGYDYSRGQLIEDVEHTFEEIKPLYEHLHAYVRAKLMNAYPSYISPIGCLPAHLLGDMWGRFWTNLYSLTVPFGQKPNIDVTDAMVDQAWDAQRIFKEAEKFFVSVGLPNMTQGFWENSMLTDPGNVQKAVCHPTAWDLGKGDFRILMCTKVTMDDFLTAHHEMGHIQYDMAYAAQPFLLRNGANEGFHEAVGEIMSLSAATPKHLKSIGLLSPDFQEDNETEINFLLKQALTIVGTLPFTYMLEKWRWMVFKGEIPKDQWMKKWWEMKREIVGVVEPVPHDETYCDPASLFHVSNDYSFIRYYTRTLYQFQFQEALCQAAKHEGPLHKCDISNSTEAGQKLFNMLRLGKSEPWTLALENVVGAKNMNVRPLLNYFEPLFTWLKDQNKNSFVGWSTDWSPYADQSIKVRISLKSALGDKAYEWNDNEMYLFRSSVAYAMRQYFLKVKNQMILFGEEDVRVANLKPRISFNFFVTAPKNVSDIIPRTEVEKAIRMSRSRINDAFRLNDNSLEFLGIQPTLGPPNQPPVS

[3] = SPR, 25 °C, 1:1 binding model, read-out: S-RBD K D
[4] = SPR, 25 °C, 1:1 binding model, read-out: ACE2 K D

Molecule: C[C@@H]1[C@H](O)[C@@H](C)/C=C/C=C/C=C/C=C/C=C/C=C/C=C/[C@H](O[C@@H]2O[C@H](C)[C@@H](O)[C@H](N)[C@@H]2O)C[C@@H]2O[C@](O)(C[C@@H](O)C[C@@H](O)[C@H](O)CC[C@@H](O)C[C@@H](O)CC(=O)O[C@H]1C)C[C@H](O)[C@H]2C(=O)O [Amphotericin B]
- Kd (SARS-CoV-2-RBD (S-RBD)): 1.01 µM
- Kd (hACE2): 9.49 µM

Molecule: Cc1ccc([C@@H]2O[C@H](CO)[C@@H](O)[C@H](O)[C@H]2O)cc1Cc1ccc(-c2ccc(F)cc2)s1 [Canagliflozin]
- Kd (SARS-CoV-2-RBD (S-RBD); [3]): 23.1 µM

Molecule: O=S(=O)(O)Oc1ccc(C(c2ccc(OS(=O)(=O)O)cc2)c2ccccn2)cc1 [Sodium Picosulfate]
- Kd (SARS-CoV-2-RBD (S-RBD)): 16 µM
- Kd (hACE2): 45.4 µM

Molecule: CCC(C)(C)C(=O)O[C@H]1C[C@@H](C)C=C2C=C[C@H](C)[C@H](CC[C@@H]3C[C@@H](O)CC(=O)O3)[C@H]21 [Simvastatin]
- Kd (hACE2): 35.8 µM

Molecule: C[C@@H]1[C@H](O)[C@@H](C)/C=C/C=C/CC/C=C/C=C/C=C/C=C/C(O[C@H]2O[C@H](C)[C@@H](O)[C@H](N)[C@@H]2O)CC2O[C@](O)(CC(O)C(O)CCC(O)CC(O)CC(O)CC(=O)O[C@H]1C)CC(O)C2C(=O)O (some centres unmarked) [Nystatin]
- Kd (SARS-CoV-2-RBD (S-RBD); [3]): 215 µM

Molecule: Nc1c(Br)cc(Br)cc1CN[C@H]1CC[C@H](O)CC1 [Ambroxol]
- Kd (SARS-CoV-2-RBD (S-RBD)): 21.2 µM

Molecule: CC(C)=CCC[C@](C)(O[C@@H]1O[C@H](CO[C@@H]2O[C@@H](CO)[C@H](O)[C@H]2O)[C@@H](O)[C@H](O)[C@H]1O)[C@H]1CC[C@]2(C)[C@@H]1[C@H](O)C[C@@H]1[C@@]3(C)CC[C@H](O[C@@H]4O[C@H](CO)[C@@H](O)[C@H](O)[C@H]4O[C@@H]4O[C@H](CO)[C@@H](O)[C@H](O)[C@H]4O)C(C)(C)[C@@H]3CC[C@]12C [Ginsenoside Rc]
- Kd (SARS-CoV-2-RBD (S-RBD)): 79.8 µM

Molecule: COC(=O)C1=CO[C@@H](O[C@@H]2O[C@H](CO)[C@@H](O)[C@H](O)[C@H]2O)[C@@H]2C(CO)=CC[C@H]12 [Geniposide]
- Kd (SARS-CoV-2-RBD (S-RBD)): 54.9 µM

Molecule: CC[C@H](C)C(=O)O[C@H]1CCC=C2C=C[C@H](C)[C@H](CC[C@@H]3C[C@@H](O)CC(=O)O3)[C@H]21 [Mevastatin]
- Kd (SARS-CoV-2-RBD (S-RBD)): 273 µM

Molecule: Aescin
- Kd (hACE2; [4]): 105 µM

Molecule: COC(=O)C1=CC[C@@]23CC[C@@H]([C@@](C)(/C=C/C=C(\C)C(=O)O)OC2=O)[C@@]3(OC(C)=O)CC1 [Pseudolaric acid B]
- Kd (hACE2): 53.8 µM

Molecule: Sodium aescinate
- Kd (SARS-CoV-2-RBD (S-RBD); [3]): 16.8 µM

Molecule: Teichomycin
- Kd (hACE2; [4]): 250 µM

Molecule: O=C(OCC1OC(OC(=O)c2cc(O)c(O)c(OC(=O)c3cc(O)c(O)c(O)c3)c2)C(OC(=O)c2cc(O)c(O)c(OC(=O)c3cc(O)c(O)c(O)c3)c2)C(OC(=O)c2cc(O)c(O)c(OC(=O)c3cc(O)c(O)c(O)c3)c2)C1OC(=O)c1cc(O)c(O)c(OC(=O)c2cc(O)c(O)c(O)c2)c1)c1cc(O)c(O)c(OC(=O)c2cc(O)c(O)c(O)c2)c1 (centres unmarked) [Tannic acid]
- Kd (hACE2; read-out: ACE2 K D, SPR, 25 °C, 1:1 binding model): 8.55 µM
- prevention of S-RBD binding to hACE2 (S-RBD binding to hACE2 [1]): prevented S-RBD from binding to hACE2
- interference with binding of S-RBD to hACE2 (S-RBD binding to hACE2 [2]): interfered with the binding of the S-RBD to hACE2 in a dose-dependent manner

Molecule: Cc1cc(OCCCS(C)(=O)=O)cc(C)c1-c1cccc(COc2ccc3c(c2)OC[C@H]3CC(=O)O)c1 [Fasiglifam]
- Kd (SARS-CoV-2-RBD (S-RBD)): 42.2 µM
- Kd (hACE2): 10.5 µM
